We go through one compound from PMC9481570, “A small molecule antagonist of SMN disrupts the interaction between SMN and RNAP II” (Nature Communications, 2022).

The assay has as its system GEMIN2. Briefly: AP-MS chemical proteomics, GEMIN2. The class given is binding, human. On the procedure: The samples for AP-MS were prepared following pulldown procedure as previously described with minor modifications. Briefly, U2OS cells were lysed in RIPA buffer and the cell lysate was equally divided into two groups: (1) DMSO group (control group): the cell lysate was incubated with 20 μM biotin-labeled compound 1; (2) Cpmd 1 group (sample group): the cell lysate was incubated with 20 μM biotin-labeled compound 1 and 200 μM free compound 1. Each group contains three biological replicates. They were incubated overnight at 4 °C, then 30 μL streptavidin beads (Thermo Fisher, 20353) was added and incubated at 4 °C for 1 h. The beads were then washed with RIPA buffer for 3 times, 10 min/time. […]
Samples were analyzed by nanoLC-MS/MS (nanoRSLC, Thermo Fisher) using an Aurora series (Ion Opticks) reversed phase HPLC column (25 cm length × 75 µm inner diameter) and directly injected to an Orbitrap Eclipse (Thermo Fisher) using a 120 min gradient (mobile phase A = 0.1% formic acid, mobile phase B = 99.9% acetonitrile with 0.1% formic acid; hold 2% B for 5 min, 2–6% B in 0.1 min, 6–25% in 100 min, 25–50% in 15 min) at a flow rate of 350 nL/min. Eluted peptide ions were analyzed using a data-dependent acquisition (DDA) method with resolution settings of 120,000 and 15,000 (at m/z 200) for MS1 and MS2 scans, respectively. […]

Where the note is “GN=GEMIN2 (O14893), Cmpd minus DMSO, -LOG(P-value) 2.68522”, `Cn1c2c(c(=N)c3c1CCC3)CCC2` [Compound 1, 4-methyl-2,3,4,5,6,7-hexahydrodicyclopenta[b,e]pyridin-8(1H)-imine] yielded a Difference of -5.244. The “log2 FC (Cmpd 1/DMSO), GEMIN2” value (biotin-Cmpd 1 pulldown, competition with 200 μM compound 1 relative to DMSO, U2OS lysate) was −5.2.
